Columns and labels:
Jejunum = assay: Antispasmodic activity in Oryctolagus cuniculus (rabbit) jejunum assessed as K+-induced contraction at 1 mg/ml; assay type: functional
Ileum = assay: Ratio IC50 for papaverine to IC50 for compound for antispasmodic activity in rat ileum; assay type: functional

Structure (SMILES) | inhibition at 1000 µg/mL (Jejunum) [%] | Ratio IC50 (Ileum)
CO[C@]1(C)C[C@H](O)[C@@H]2[C@H](OC(=O)[C@H]2C)[C@@H]2[C@H]1CC[C@@]2(C)O | 39.5 | 0.083
CO[C@]1(C)C[C@H](O)[C@@H]2[C@H](OC(=O)[C@H]2C)[C@@H]2[C@H]1C[C@@H](O)[C@@]2(C)O | 43.4 | 0.09
C=C1CC[C@H]2O[C@]2(C)CC[C@@H]2[C@@H]1CC2(C)C [(-)-CARYOPHYLLENE OXIDE] | 31.6 | 0.071
COc1ccc(Cc2nccc3cc(OC)c(OC)cc23)cc1OC [PAPAVERINE] |  | 1
COc1ccc(CCN(C)CCCC(C#N)(c2ccc(OC)c(OC)c2)C(C)C)cc1OC (stereo not drawn) [VERAPAMIL] | 67.5 | 

Source: ChEMBL document CHEMBL3046256, “Sesquiterpene lactones: antispasmodic principles of the freshwater algae Hydrodictyon reticulatum” (Med Chem Res, 2012)
